Measurements: patent US20210236442A1, “METHODS FOR DELAYING OCCURRENCE OF NEW-ONSET TYPE 2 DIABETES AND FOR SLOWING PROGRESSION OF AND TREATING TYPE 2 DIABETES” (Dalcor Pharma UK Ltd., Leatherhead, Zug Branch, priority 2018, published 2021)

Key:
Assay type in all cases: in vivo, human
[1] = system: patients enrolled in the dal-OUTCOMES trial; assay: Cox proportional hazards regression of diabetes for association with cardiovascular events per rs1967309 genotype and treatment arm (dal-OUTCOMES); settings: for Event (cardiovascular events) / HR (diabetes, cardiovascular events) / β diabetes (cardiovascular events): dalcetrapib arm
From the text: Inclusion Criteria: Patients 45 years of age or older who provided written informed consent were eligible to participate if they had been hospitalized for an acute coronary syndrome characterized by elevated cardiac biomarkers, with symptoms of acute myocardial ischemia, ischemic electrocardiographic abnormalities that were new or presumed to be new, or loss of viable myocardium on imaging. Patients without elevated cardiac biomarkers were eligible to participate if symptoms of acute myocardial ischemia were accompanied by electrocardiographic changes that were new or presumed to be new and by additional evidence of obstructive coronary disease. […] However, no specific statin agent or dose was specified, and patients were not excluded if their LDL cholesterol level remained above 100 mg per deciliter. There were no exclusions on the basis of patients' HDL cholesterol level. […] The patients began a single-blind placebo-based run-in period of approximately 4 to 6 weeks to allow for patients to stabilize and for completion of any planned revascularization procedures. At the end of the run-in period, patients in stable condition were randomized in a 1:1 ratio to 600 mg of dalcetrapib or placebo on top of evidence-based medical care for acute cardiovascular syndrome (“ACS”). The descriptive statistics and analyses were performed using SAS 9.4 software. […]

[2] = system: patients enrolled in the dal-OUTCOMES trial; assay: Repeated measures mixed model regression of treatment arm for fasting plasma glucose and whole-blood HbA1c per genotype and diabetes status; settings: all rs1967309 genotypes, diabetic and non-diabetic, with and without age and sex; except AG diabetic patients
From the text: The effect of ADCY9 rs1967309 genotypes on patient HbA1C and glucose levels was retrospectively assessed in patients enrolled in the dal-OUTCOMES trial.
Inclusion Criteria: Patients 45 years of age or older who provided written informed consent were eligible to participate if they had been hospitalized for an acute coronary syndrome characterized by elevated cardiac biomarkers, with symptoms of acute myocardial ischemia, ischemic electrocardiographic abnormalities that were new or presumed to be new, or loss of viable myocardium on imaging. Patients without elevated cardiac biomarkers were eligible to participate if symptoms of acute myocardial ischemia were accompanied by electrocardiographic changes that were new or presumed to be new and by additional evidence of obstructive coronary disease. […] However, no specific statin agent or dose was specified, and patients were not excluded if their LDL cholesterol level remained above 100 mg per deciliter. There were no exclusions on the basis of patients' HDL cholesterol level. […] The patients began a single-blind placebo-based run-in period of approximately 4 to 6 weeks to allow for patients to stabilize and for completion of any planned revascularization procedures. […]

[3] = system: patients of the dal-OUTCOMES trial; assay: GLM of dalcetrapib treatment arm for whole-blood HbA1c at 6, 12 and 24 months
Procedure: The effect of dalcetrapib on whole-blood HbA1c levels irrespective of genotype and the impact of dalcetrapib on risk of new onset diabetes were retrospectively assessed in patients of the dal-OUTCOMES trial. The descriptive statistics and analyses were performed using SAS 9.4 software. Diabetes at baseline was defined based on at least one of the following patient criteria: (1) diagnosis of diabetics at baseline in the dal-OUTCOMES trial; (2) whole-blood HbA1c level>=6.5% at baseline; (3) fasting glucose level>=7.0 mmol/L at baseline; and (4) use of diabetes medication at or before baseline. GLM results of the dalcetrapib treatment arm for whole-blood HbA1c at 6,12, and 24 months (“M06”, “M12” and “M24”, respectively) were obtained.

[4] = rs1967309 AA, controlling for age and sex
[5] = rs1967309 AG, controlling for age and sex
[6] = rs1967309 GG, controlling for age and sex

SMILES: CCC(CC)CC1(C(=O)Nc2ccccc2SC(=O)C(C)C)CCCCC1 [dalcetrapib]
- effect of dalcetrapib on cardiovascular events ([1]; AA patients with diabetes): cardiovascular protective effect
- Event (cardiovascular events) ([1]; rs1967309 AA, Table 6): 37
- Event (cardiovascular events) ([1]; rs1967309 AA, Table 7): 37
- HR (diabetes, cardiovascular events) [1, 4]: 1.6850
- β diabetes (cardiovascular events) [1, 4]: 0.5218
- HR (diabetes, cardiovascular events) ([1]; rs1967309 AA, no covariate): 1.4330
- β diabetes (cardiovascular events) ([1]; rs1967309 AA, no covariate): 0.3597
- Event (cardiovascular events) ([1]; rs1967309 AG, Table 6): 176
- Event (cardiovascular events) ([1]; rs1967309 AG, Table 7): 176
- HR (diabetes, cardiovascular events) [1, 5]: 2.2217
- β diabetes (cardiovascular events) [1, 5]: 0.7983
- HR (diabetes, cardiovascular events) ([1]; rs1967309 AG, no covariate): 2.3398
- β diabetes (cardiovascular events) ([1]; rs1967309 AG, no covariate): 0.8501
- Event (cardiovascular events) ([1]; rs1967309 GG, Table 6): 176
- Event (cardiovascular events) ([1]; rs1967309 GG, Table 7): 176
- HR (diabetes, cardiovascular events) [1, 6]: 1.6913
- β diabetes (cardiovascular events) [1, 6]: 0.5255
- HR (diabetes, cardiovascular events) ([1]; rs1967309 GG, no covariate): 1.7772
- β diabetes (cardiovascular events) ([1]; rs1967309 GG, no covariate): 0.5750
- significance of dalcetrapib treatment arm for outcome HbA1c [2]: significant
- β dalcetrapib, Ln(HbA1c) ([3]; All, HBA1C_M06, Table 12, adjustment not stated): −0.0137
- β dalcetrapib, Ln(HbA1c) ([3]; All, HBA1C_M06, first block, adjusted for baseline HbA1c): −0.0143
- β dalcetrapib, Ln(HbA1c) ([3]; All, HBA1C_M12, Table 12, adjustment not stated): −0.0152
- β dalcetrapib, Ln(HbA1c) ([3]; All, HBA1C_M12, first block, adjusted for baseline HbA1c): −0.0160
- β dalcetrapib, Ln(HbA1c) ([3]; All, HBA1C_M24, Table 12, adjustment not stated): −0.0170
- β dalcetrapib, Ln(HbA1c) ([3]; All, HBA1C_M24, first block, adjusted for baseline HbA1c): −0.0176
- association of dalcetrapib treatment arm with whole-blood HbA1c levels ([3]; M06, M12, M24, all patients combined and each rs1967309 genotype, with and without age and sex): associated with decrease in whole-blood HbA1c levels
- β dalcetrapib, Ln(HbA1c) ([3]; genotype = AA, HBA1C_M06, Table 12, adjustment not stated): −0.0192
- β dalcetrapib, Ln(HbA1c) ([3]; genotype = AA, HBA1C_M06, first block, adjusted for baseline HbA1c): −0.0196
- β dalcetrapib, Ln(HbA1c) ([3]; genotype = AA, HBA1C_M12, Table 12, adjustment not stated): −0.0112
- β dalcetrapib, Ln(HbA1c) ([3]; genotype = AA, HBA1C_M12, first block, adjusted for baseline HbA1c): −0.0116
- β dalcetrapib, Ln(HbA1c) ([3]; genotype = AA, HBA1C_M24, Table 12, adjustment not stated): −0.0172
- β dalcetrapib, Ln(HbA1c) ([3]; genotype = AA, HBA1C_M24, first block, adjusted for baseline HbA1c): −0.0171
- β dalcetrapib, Ln(HbA1c) ([3]; genotype = AG, HBA1C_M06, Table 12, adjustment not stated): −0.0113
- β dalcetrapib, Ln(HbA1c) ([3]; genotype = AG, HBA1C_M06, first block, adjusted for baseline HbA1c): −0.0123
- β dalcetrapib, Ln(HbA1c) ([3]; genotype = AG, HBA1C_M12, Table 12, adjustment not stated): −0.0143
- β dalcetrapib, Ln(HbA1c) ([3]; genotype = AG, HBA1C_M12, first block, adjusted for baseline HbA1c): −0.0156
- β dalcetrapib, Ln(HbA1c) ([3]; genotype = AG, HBA1C_M24, Table 12, adjustment not stated): −0.0139
- β dalcetrapib, Ln(HbA1c) ([3]; genotype = AG, HBA1C_M24, first block, adjusted for baseline HbA1c): −0.0153
- β dalcetrapib, Ln(HbA1c) ([3]; genotype = GG, HBA1C_M06, Table 12, adjustment not stated): −0.0145
- β dalcetrapib, Ln(HbA1c) ([3]; genotype = GG, HBA1C_M06, first block, adjusted for baseline HbA1c): −0.0145
- β dalcetrapib, Ln(HbA1c) ([3]; genotype = GG, HBA1C_M12, Table 12, adjustment not stated): −0.0185
- β dalcetrapib, Ln(HbA1c) ([3]; genotype = GG, HBA1C_M12, first block, adjusted for baseline HbA1c): −0.0186
- β dalcetrapib, Ln(HbA1c) ([3]; genotype = GG, HBA1C_M24, Table 12, adjustment not stated): −0.0214
- β dalcetrapib, Ln(HbA1c) ([3]; genotype = GG, HBA1C_M24, first block, adjusted for baseline HbA1c): −0.0210
- β dalcetrapib, Ln(HbA1c) ([3]; genotype_group = AA + AG, HBA1C_M06, Table 12, adjustment not stated): −0.0133
- β dalcetrapib, Ln(HbA1c) ([3]; genotype_group = AA + AG, HBA1C_M06, first block, adjusted for baseline HbA1c): −0.0141
- β dalcetrapib, Ln(HbA1c) ([3]; genotype_group = AA + AG, HBA1C_M12, Table 12, adjustment not stated): −0.0135
- β dalcetrapib, Ln(HbA1c) ([3]; genotype_group = AA + AG, HBA1C_M12, first block, adjusted for baseline HbA1c): −0.0146
- β dalcetrapib, Ln(HbA1c) ([3]; genotype_group = AA + AG, HBA1C_M24, Table 12, adjustment not stated): −0.0147
- β dalcetrapib, Ln(HbA1c) ([3]; genotype_group = AA + AG, HBA1C_M24, first block, adjusted for baseline HbA1c): −0.0157
- β dalcetrapib, Ln(HbA1c) ([3]; genotype_group = GG, HBA1C_M06, Table 12, adjustment not stated): −0.0145
- β dalcetrapib, Ln(HbA1c) ([3]; genotype_group = GG, HBA1C_M06, first block, adjusted for baseline HbA1c): −0.0145
- β dalcetrapib, Ln(HbA1c) ([3]; genotype_group = GG, HBA1C_M12, Table 12, adjustment not stated): −0.0185
- β dalcetrapib, Ln(HbA1c) ([3]; genotype_group = GG, HBA1C_M12, first block, adjusted for baseline HbA1c): −0.0186
- β dalcetrapib, Ln(HbA1c) ([3]; genotype_group = GG, HBA1C_M24, Table 12, adjustment not stated): −0.0214
- β dalcetrapib, Ln(HbA1c) ([3]; genotype_group = GG, HBA1C_M24, first block, adjusted for baseline HbA1c): −0.0210
- mean ln(HbA1c) in the dalcetrapib treatment arm ([3]; versus placebo arm, adjusting for baseline HbA1c): lower than in the placebo arm
